Measured values as given in patent US20250296959A1, “B7-H3 TARGETING PEPTIDES AND CONSTRUCTS THEREOF” (Mariana Oncology Inc., priority 2024, published 2025).
Starred links: 1 amine or outer side, 2 acyl side, 3 side chain; linkers in the order of their positions; H or OH if unused. Positions of bridges follow the written chain, without caps; N, C: chain ends. Non-standard residues stand in square brackets, D forms with d. Residues, ends and D or L forms follow the SMILES beside them. Groups on a side chain read outwards from the residue. *: point of attachment. Ala(1-CH2CO2H-4-piperidyl) = N[C@@H](CC1CCN(CC(=O)O)CC1)C(=O)O; Ala(piperidin-4-yl) = O=C([C@H](CC1CCN([*:3])CC1)N[*:1])[*:2]; DOTA = O=C(O)CN1CCN(CC(=O)O)CCN(CC(=O)*)CCN(CC(=O)O)CC1; Phe(4-NHCONH2) = NC(=O)Nc1ccc(C[C@H](N)C(=O)O)cc1; Trp(5-Cl) = N[C@@H](Cc1c[nH]c2ccc(Cl)cc12)C(=O)O; Trp(5-F) = N[C@@H](Cc1c[nH]c2ccc(F)cc12)C(=O)O; X1 = C[C@@H](c1ccccc1)[C@H](N[*:1])C(=O)[*:2]; 1Nal = N[C@@H](Cc1cccc2ccccc12)C(=O)O; Ala(4-THP) = N[C@@H](CC1CCOCC1)C(=O)O; Val(3-OH) = CC(C)(O)[C@H](N)C(=O)O; tBuAla = CC(C)(C)C[C@H](N)C(=O)O; 4Pal = N[C@@H](Cc1ccncc1)C(=O)O; PEG4 = NCCOCCOCCOCCOCCC(=O)O; Tle = CC(C)(C)[C@H](N)C(=O)O; hLeu = CC(C)CC[C@H](N)C(=O)O; NMeS = CN[C@@H](CO)C(=O)O; hSer = N[C@@H](CCO)C(=O)O; Nle = CCCC[C@H](N)C(=O)O

Target: T1, human 4lg B7-H3 (Homo sapiens, UniProt Q5ZPR3)
T1 sequence (Q5ZPR3 29-534): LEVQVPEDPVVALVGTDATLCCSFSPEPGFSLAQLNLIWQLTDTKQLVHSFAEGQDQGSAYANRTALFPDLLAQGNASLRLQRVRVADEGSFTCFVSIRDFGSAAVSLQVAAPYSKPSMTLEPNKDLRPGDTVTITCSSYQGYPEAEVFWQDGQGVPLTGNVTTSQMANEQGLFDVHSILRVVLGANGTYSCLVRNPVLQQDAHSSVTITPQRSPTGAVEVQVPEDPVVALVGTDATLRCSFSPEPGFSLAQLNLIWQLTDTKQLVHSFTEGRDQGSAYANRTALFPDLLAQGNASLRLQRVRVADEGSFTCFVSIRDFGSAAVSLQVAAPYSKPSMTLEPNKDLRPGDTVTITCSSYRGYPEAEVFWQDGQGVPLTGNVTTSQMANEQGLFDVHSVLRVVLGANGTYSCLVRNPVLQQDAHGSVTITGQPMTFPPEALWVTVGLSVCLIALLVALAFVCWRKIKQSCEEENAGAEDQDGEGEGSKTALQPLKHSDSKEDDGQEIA
Experiment: Affinity determination by surface plasmon resonance (SPR) to 4Ig B7-H3
Settings: 4Ig B7-H3

[1] = SPR KD—25° C., 25° C. flow cell temperature
[2] = SPR KD—37° C., 37° C. flow cell temperature

| Kd [1] | Kd [2] | SMILES |
| --- | --- | --- |
| 1 to 10 nM |  | CC(=O)N[C@@H](CCC(C)C)C(=O)N[C@@H](Cc1ccc(O)cc1)C(=O)N[C@H]1CSSC[C@@H](C(=O)N[C@@H](Cc2c[nH]c3ccc(F)cc23)C(=O)N[C@@H](Cc2ccccc2)C(=O)N2CCC[C@H]2C(=O)N[C@H](CCCCNC(=O)CN2CCN(CC(=O)O)CCN(CC(=O)O)CCN(CC(=O)O)CC2)C(=O)O)NC(=O)[C@H](Cc2ccc(O)cc2)NC(=O)[C@H](C(C)C)NC(=O)[C@H](CC(=O)O)NC(=O)[C@H](CC2CCOCC2)NC(=O)[C@H](CCCCN)NC(=O)CNC(=O)[C@H](C(C)(C)C)NC1=O [compound 304, Ac-hLeu-Y-C-Tbg-G-K-ThpA-D-V-Y-C-5FW-F-Pro-dLys(DOTA)-COOH] (Ac-[hLeu]YC[Tle]GK[Ala(4-THP)]DVYC[Trp(5-F)]FP[dK](DOTA)-OH; disulfide 3-11) |
| 1 to 10 nM |  | CC(=O)N[C@@H](CCC(C)C)C(=O)N[C@@H](Cc1ccc(O)cc1)C(=O)N[C@H]1CSSC[C@@H](C(=O)N[C@@H](Cc2c[nH]c3ccc(F)cc23)C(=O)N[C@@H](CC(C)(C)C)C(=O)N[C@H](C(=O)N[C@H](CCCCNC(=O)CN2CCN(CC(=O)O)CCN(CC(=O)O)CCN(CC(=O)O)CC2)C(=O)O)[C@@H](C)O)NC(=O)[C@H](Cc2ccc(O)cc2)NC(=O)[C@H](C(C)C)NC(=O)[C@H](CC(=O)O)NC(=O)[C@H](CC2CCOCC2)NC(=O)[C@H](CCCCN)NC(=O)CNC(=O)[C@H](C(C)(C)C)NC1=O [compound 360, Ac-hLeu-Y-C-Tbg-G-K-ThpA-D-V-Y-C-5FW-tBuAla-Thr-dLys(DOTA)-COOH] (Ac-[hLeu]YC[Tle]GK[Ala(4-THP)]DVYC[Trp(5-F)][tBuAla]T[dK](DOTA)-OH; disulfide 3-11) |
| 1 to 10 nM |  | CC(=O)N[C@@H](CCC(C)C)C(=O)N[C@@H](Cc1ccc(O)cc1)C(=O)N[C@H]1CSSC[C@@H](C(=O)N[C@@H](Cc2c[nH]c3ccc(F)cc23)C(=O)N[C@@H](Cc2ccccc2)C(=O)N2CCC[C@H]2C(=O)N[C@H](CCCCNC(=O)CN2CCN(CC(=O)O)CCN(CC(=O)O)CCN(CC(=O)O)CC2)C(=O)O)NC(=O)[C@H](Cc2ccc(O)cc2)NC(=O)[C@H](C(C)C)NC(=O)[C@H](CC(=O)O)NC(=O)[C@H](CC2CCOCC2)NC(=O)[C@H](CCO)NC(=O)CNC(=O)[C@H](C(C)(C)C)NC1=O [compound 311, Ac-hLeu-Y-C-Tbg-G-hSer-ThpA-D-V-Y-C-5FW-F-Pro-dLys(DOTA)-COOH] (Ac-[hLeu]YC[Tle]G[hSer][Ala(4-THP)]DVYC[Trp(5-F)]FP[dK](DOTA)-OH; disulfide 3-11) |
|  | < 1 nM | CC(=O)N[C@@H](CCC(C)C)C(=O)N[C@@H](Cc1ccc(O)cc1)C(=O)N[C@H]1CSSC[C@@H](C(=O)N[C@@H](Cc2c[nH]c3ccc(Cl)cc23)C(=O)N[C@@H](Cc2ccccc2)C(=O)N[C@H](C(=O)N[C@H](CCCCNC(=O)CN2CCN(CC(=O)O)CCN(CC(=O)O)CCN(CC(=O)O)CC2)C(=O)O)C(C)(C)O)NC(=O)[C@H](Cc2ccc(O)cc2)NC(=O)[C@H](C(C)C)NC(=O)[C@H](CC(=O)O)NC(=O)[C@H](CC2CCOCC2)NC(=O)[C@H](CC2CCNCC2)NC(=O)CNC(=O)[C@H](C(C)(C)C)NC1=O [compound 457, Ac-hLeu-Y-C-Tbg-G-PipAla-ThpA-D-V-Y-C-5ClW-F-hydroxyVal-dLys(DOTA)-COOH] (Ac-[hLeu]YC[Tle]G[Ala(piperidin-4-yl)][Ala(4-THP)]DVYC[Trp(5-Cl)]F[Val(3-OH)][dK](DOTA)-OH; disulfide 3-11) |

Continued, compound first:

| SMILES | Kd [1] | Kd [2] |
| --- | --- | --- |
| CC(=O)N[C@@H](CCC(C)C)C(=O)N[C@@H](Cc1ccc(O)cc1)C(=O)N[C@H]1CSSC[C@@H](C(=O)N[C@@H](Cc2c[nH]c3ccc(F)cc23)C(=O)N[C@H](C(=O)N[C@H](C(=O)N[C@H](CCCCNC(=O)CCOCCOCCOCCOCCNC(=O)CN2CCN(CC(=O)O)CCN(CC(=O)O)CCN(CC(=O)O)CC2)C(=O)O)C(C)(C)O)[C@@H](C)c2ccccc2)NC(=O)[C@H](Cc2ccc(NC(N)=O)cc2)NC(=O)[C@H](C(C)C)NC(=O)[C@H](CC(=O)O)NC(=O)[C@H](CC2CCOCC2)NC(=O)[C@H](CC2CCNCC2)NC(=O)CNC(=O)[C@H](C(C)(C)C)NC1=O [compound 500, Ac-hLeu-Y-C-Tbg-G-PipAla-ThpA-D-V-Aph(Cbm)-C-5FW-[(2S, 3S)beta-Me-Phe]-hydroxyVal-dLys(PEG4-DOTA)-COOH] (Ac-[hLeu]YC[Tle]G[Ala(piperidin-4-yl)][Ala(4-THP)]DV[Phe(4-NHCONH2)]C[Trp(5-F)][X1][Val(3-OH)][dK]([PEG4-DOTA])-OH; disulfide 3-11) |  | < 1 nM |
| CC(=O)N[C@@H](CCC(C)C)C(=O)N[C@@H](Cc1ccc(O)cc1)C(=O)N[C@H]1CSSC[C@@H](C(=O)N[C@@H](Cc2c[nH]c3ccc(F)cc23)C(=O)N[C@@H](Cc2ccccc2)C(=O)N[C@H](C(=O)N[C@H](CO)C(N)=O)C(C)(C)O)NC(=O)[C@H](Cc2ccc(O)cc2)NC(=O)[C@H](C(C)C)NC(=O)[C@H](CC(=O)O)NC(=O)[C@H](CC2CCN(CC(=O)O)CC2)NC(=O)[C@H](CCCCNC(=O)CN2CCN(CC(=O)O)CCN(CC(=O)O)CCN(CC(=O)O)CC2)NC(=O)CNC(=O)[C@H](C(C)(C)C)NC1=O [compound 420, Ac-hLeu-Y-C-Tbg-G-Lys(DOTA)-Pip(CH2COOH)Ala-D-V-Y-C-5FW-F-hydroxyVal-dSer-CONH2] (Ac-[hLeu]YC[Tle]GK(DOTA)[Ala(1-CH2CO2H-4-piperidyl)]DVYC[Trp(5-F)]F[Val(3-OH)][dS]-NH2; disulfide 3-11) |  | 1 to 10 nM |
| CC(=O)N[C@@H](CCC(C)C)C(=O)N[C@@H](Cc1ccc(O)cc1)C(=O)N[C@H]1CSSC[C@@H](C(=O)N[C@@H](Cc2cccc3ccccc23)C(=O)N[C@@H](Cc2ccccc2)C(=O)N[C@H](C(=O)N[C@H](C)C(=O)O)C(C)(C)O)NC(=O)[C@H](Cc2ccc(O)cc2)NC(=O)[C@H](C(C)C)NC(=O)[C@H](CC(=O)O)NC(=O)[C@H](CC2CCN(C(=O)CCOCCOCCOCCOCCNC(=O)CN3CCN(CC(=O)O)CCN(CC(=O)O)CCN(CC(=O)O)CC3)CC2)NC(=O)[C@H](CC2CCNCC2)NC(=O)CNC(=O)[C@H](C(C)(C)C)NC1=O [compound 453, Ac-hLeu-Y-C-Tbg-G-PipAla-Pip(PEG4-DOTA)Ala-D-V-Y-C-1Nal-F-hydroxyVal-dAla-COOH] (Ac-[hLeu]YC[Tle]G[Ala(piperidin-4-yl)][Ala(piperidin-4-yl)]([PEG4-DOTA])DVYC[1Nal]F[Val(3-OH)][dA]-OH; disulfide 3-11) |  | < 1 nM |
| COc1ccc(C[C@@H]2NC(=O)[C@H](C(C)C)NC(=O)[C@H](CC(=O)O)NC(=O)[C@H](Cc3ccncc3)NC(=O)[C@H](CCCCNC(=O)CN3CCN(CC(=O)O)CCN(CC(=O)O)CCN(CC(=O)O)CC3)NC(=O)CNC(=O)[C@H](C(C)C)NC(=O)[C@@H](NC(=O)[C@H](Cc3ccc(O)cc3)NC(=O)[C@H](CCC(C)C)NC(C)=O)CSSC[C@@H](C(=O)N[C@@H](Cc3c[nH]c4ccc(F)cc34)C(=O)N[C@@H](Cc3ccccc3)C(=O)N3CCC[C@H]3C(N)=O)NC2=O)cc1 [compound 249, Ac-hLeu-Y-C-V-G-Lys(DOTA)-4PyA-D-V-OMeTyr-C-5FW-F-Pro-CONH2] (Ac-[hLeu]YCVGK(DOTA)[4Pal]DVY(Me)C[Trp(5-F)]FP-NH2; disulfide 3-11) | 1 to 10 nM |  |
| CCCC[C@H](NC(C)=O)C(=O)N[C@@H](Cc1ccc(O)cc1)C(=O)N[C@H]1CSSC[C@@H](C(=O)N[C@@H](Cc2c[nH]c3ccccc23)C(=O)N[C@@H](Cc2ccccc2)C(=O)N[C@H](C(=O)N[C@H](CCCCNC(=O)CN2CCN(CC(=O)O)CCN(CC(=O)O)CCN(CC(=O)O)CC2)C(N)=O)[C@@H](C)O)NC(=O)[C@H](Cc2ccc(O)cc2)NC(=O)[C@H](C(C)C)NC(=O)[C@H](CC(=O)O)NC(=O)[C@H](Cc2ccc(O)cc2)NC(=O)[C@H](CCCCNC(C)=O)NC(=O)CNC(=O)[C@H](C(C)C)NC1=O [compound 65, Ac-Nle-Y-C-V-G-Lys(Ac)-Y-D-V-Y-C-W-F-Thr-dLys(DOTA)-CONH2] (Ac-[Nle]YCVGK(Ac)YDVYCWFT[dK](DOTA)-NH2; disulfide 3-11) | 10 to 100 nM |  |
| CC(=O)N[C@@H](CCC(C)C)C(=O)N[C@@H](Cc1ccc(O)cc1)C(=O)N[C@H]1CSSC[C@@H](C(=O)N[C@@H](Cc2c[nH]c3ccc(F)cc23)C(=O)N[C@@H](Cc2ccccc2)C(=O)N(C)[C@@H](CO)C(N)=O)NC(=O)[C@H](Cc2ccc(O)cc2)NC(=O)[C@H](C(C)C)NC(=O)[C@H](CC(=O)O)NC(=O)[C@H](Cc2ccncc2)NC(=O)[C@H](CCCCNC(=O)CN2CCN(CC(=O)O)CCN(CC(=O)O)CCN(CC(=O)O)CC2)NC(=O)CNC(=O)[C@H](C(C)C)NC1=O [compound 228, Ac-hLeu-Y-C-V-G-Lys(DOTA)-4PyA-D-V-Y-C-5FW-F-NMeSer-CONH2] (Ac-[hLeu]YCVGK(DOTA)[4Pal]DVYC[Trp(5-F)]F[NMeS]-NH2; disulfide 3-11) | 1 to 10 nM |  |
| CC(=O)N[C@@H](CCC(C)C)C(=O)N[C@@H](Cc1ccc(O)cc1)C(=O)N[C@H]1CSSC[C@@H](C(=O)N[C@@H](Cc2c[nH]c3ccccc23)C(=O)N[C@@H](Cc2ccccc2)C(=O)N[C@H](C(=O)N[C@H](CCCCNC(=O)CN2CCN(CC(=O)O)CCN(CC(=O)O)CCN(CC(=O)O)CC2)C(N)=O)[C@@H](C)O)NC(=O)[C@H](Cc2ccc(O)cc2)NC(=O)[C@H](C(C)C)NC(=O)[C@H](CC(=O)O)NC(=O)[C@H](Cc2ccc(O)cc2)NC(=O)[C@H](CCCCN)NC(=O)CNC(=O)[C@H](C(C)(C)O)NC1=O [compound 122, Ac-hLeu-Y-C-hydroVal-G-K-Y-D-V-Y-C-W-F-Thr-dLys(DOTA)-CONH2] (Ac-[hLeu]YC[Val(3-OH)]GKYDVYCWFT[dK](DOTA)-NH2; disulfide 3-11) | 10 to 100 nM |  |
